Read-outs that look alike come from different tables or passages of the source.
Legend:
rats [1] = assay: Urinary biomarkers of renal damage (KIM-1, clusterin, osteopontin) in the rat toxicity study; type: in vivo; conditions: 150 mg/kg daily for 5 days, FIG. 8
Experimental: (§1) To evaluate toxicity of the liposomal formulations, rats were dosed daily with 150 mg/kg test formulation for 5 days, which is about 10-fold of a dose for human administration (typically 1 g).
(§2) The endpoints for renal damage were urinary biomarkers (KIM-1, Clusterin, Osteopontin), a plasma biomarker (creatinine), and histopathology findings for the kidney. Here, blood sampling was performed at a total volume of 2 mL and clinical chemistry samples were drawn pre-dosing, day 3, and day 5 (0.25 mL each), and pharmacokinetic samples were drawn on Day 1 (4 samples of 0.125 mL), Day 3 (4 samples of 0.125 mL), and Day 5 (2 samples of 0.125 mL). For each animal, at euthanasia, kidneys were formalin fixed and flash frozen in liquid nitrogen. Samples were analyzed for histopathological grading using standard procedures well known in the art.
Further exemplary results are shown for selected urinary markers in FIG. 8. Here, the markers included KIM-1, clusterin, and osteopontin (OPN). […] On the other hand, the markers remained substantially unchanged or only moderately elevated over control in both treatment groups where liposomal compositions according to the inventive subject matter were used.

rats [2] = assay: Kidney histopathology in the rat toxicity study; type: in vivo; conditions: 150 mg/kg daily for 5 days
Experimental: as §1, §2

[3] = cited from earlier work
[4] = Pharmacokinetic study in rat models (single dose, infusion); type: in vivo; conditions: 15 mg/kg, infusion time 1 h
Excerpt: 5. […] Thus, vancomycin was available for a prolonged period and less frequent administration is enabled.

Question: With `CN[C@H](CC(C)C)C(=O)N[C@H]1C(=O)N[C@@H](CC(N)=O)C(=O)N[C@H]2C(=O)N[C@H]3C(=O)N[C@H](C(=O)N[C@H](C(=O)O)c4cc(O)cc(O)c4-c4cc3ccc4O)[C@H](O)c3ccc(c(Cl)c3)Oc3cc2cc(c3O[C@@H]2O[C@H](CO)[C@@H](O)[C@H](O)[C@H]2O[C@H]2C[C@](C)(N)[C@H](O)[C@H](C)O2)Oc2ccc(cc2Cl)[C@H]1O` [Vancomycin] as the compound, how does the “urinary markers KIM-1, clusterin, osteopontin (OPN)” value (rats [1]) read?
Answer: significant elevations of all markers

Question: And the kidney histopathological findings (rats [2])?
Answer: significant proximal tubular cell injury and repair

Question: And the half-life ([3]; humans with normal renal function)?
Answer: three to six

Question: And the mean plasma concentration ([3]; humans, multiple intravenous infusions of 1 gram over 60 minutes, 11 hours after end of infusion)?
Answer: 8000 ng/mL

Question: What about the “recovered unchanged in urine” value ([3]; within 24 h after a single dose) of the same compound?
Answer: 80%-90

Question: And the Lambda z [4]?
Answer: 0.879

Question: And the AUC(0-inf) ([4]; serum, iv)?
Answer: 34800 ng·h/mL

Question: What about the Cmax ([4]; serum, iv) of the same compound?
Answer: 34600 ng/mL

Question: And the Tmax ([4]; serum, iv)?
Answer: 0 h

Question: And the half-life ([4]; serum, iv)?
Answer: 48 min

From patent US20220296515A1, “Vancomycin Liposome Compositions and Methods” (Nevakar Injectables Inc., priority 2019, published 2022)
